From ChEMBL document CHEMBL3885861, “Open TG-GATES”

Species on record: Rattus norvegicus
Assay: Open TG-GATES - Regimen: Daily Repeat
Assay type: toxicity, organism-based, Sprague-Dawley
Design: regimen Daily Repeat, gender Male, age 6 weeks
Details: in vivo, po, 300 mg/kg, route gavage, dose level Middle; for APTT / Bas / Eos / Fbg / Hb / Ht / Lym / MCH / MCHC / MCV / Mono / Neu / PT / Plat / RBC / Ret / WBC: tissue Blood; for KIDNEY_L / KIDNEY_R / KIDNEY_TOTAL: tissue Kidney; for LIVER: tissue Liver; for A/G / ALP / ALT / AST / BUN / CRE / Ca / Cl / DBIL / GLC / IP / K / LDH / Na / PL / RALB / TBIL / TC / TG / TP / gamma-GTP: tissue Plasma

Compound CCOC(=O)CCC(=O)O[C@H]1[C@H](O[C@@H]2[C@@H](C)[C@H](O[C@H]3C[C@@](C)(OC)[C@@H](O)[C@H](C)O3)[C@@H](C)C(=O)O[C@H](CC)[C@@](C)(O)[C@H](O)[C@@H](C)C(=O)[C@H](C)C[C@@]2(C)O)O[C@H](C)C[C@@H]1N(C)C [ERYTHROMYCIN ETHYLSUCCINATE] has a TERMINAL_BW (72 h, time 3 day) of 237.7 g, an APTT (72 h, time 3 day) of 21.3 s and a Bas (72 h, time 3 day) of 0%. The Eos (72 h, time 3 day) was 1%, the Fbg (72 h, time 3 day) was 311.6 mg/dL and the Hb (72 h, time 3 day) was 13.5 g/dL. For the same compound, the Ht (72 h, time 3 day) was 39.3%, the Lym (72 h, time 3 day) was 83.2% and the MCH (72 h, time 3 day) was 21.5 pg. The MCHC (72 h, time 3 day) was 34.4%, the MCV (72 h, time 3 day) was 62.7 fL and the Mono (72 h, time 3 day) was 3%. It also gave a Neu (72 h, time 3 day) of 11.8%, a PT (72 h, time 3 day) of 15.8 s and a Plat (72 h, time 3 day) of 114.1 x10_4/uL. It also gave an RBC (72 h, time 3 day) of 627.6 x10_4/ul, a Ret (72 h, time 3 day) of 5.1% and a WBC (72 h, time 3 day) of 94.1 x10_2/uL. The KIDNEY_L (72 h, time 3 day) was 1 g, the KIDNEY_R (72 h, time 3 day) was 1 g and the KIDNEY_TOTAL (72 h, time 3 day) was 2 g. The LIVER (72 h, time 3 day) was 10.9 g, the A/G (72 h, time 3 day) was 1.2 and the ALP (72 h, time 3 day) was 1728.8 IU/L. It also gave an ALT (72 h, time 3 day) of 44 IU/L, an AST (72 h, time 3 day) of 76 IU/L and a BUN (72 h, time 3 day) of 18.6 mg/dL. It also gave a CRE (72 h, time 3 day) of 0.2 mg/dL, a Ca (72 h, time 3 day) of 10.4 mg/dL and a Cl (72 h, time 3 day) of 108 meq/L. The DBIL (72 h, time 3 day) was 0 mg/dL, the GLC (72 h, time 3 day) was 192.6 mg/dL and the IP (72 h, time 3 day) was 7.3 mg/dL. It also gave a K (72 h, time 3 day) of 4.2 meq/L, an LDH (72 h, time 3 day) of 261 IU/L and a Na (72 h, time 3 day) of 141.2 meq/L. For the same compound, the PL (72 h, time 3 day) was 133.8 mg/dL, the RALB (72 h, time 3 day) was 3 g/dL and the TBIL (72 h, time 3 day) was 0.016 mg/dL. The TC (72 h, time 3 day) was 72.2 mg/dL, the TG (72 h, time 3 day) was 100.6 mg/dL and the TP (72 h, time 3 day) was 5.5 g/dL. For the same compound, the gamma-GTP (72 h, time 3 day) was 1.4 IU/L, the TERMINAL_BW ([…], time 7 day) was 269.9 g and the TERMINAL_BW ([…], time 14 day) was 321.9 g. It also gave a TERMINAL_BW ([…], time 28 day) of 391.2 g, an APTT ([…], time 7 day) of 22.2 s and a Bas ([…], time 7 day) of 0%. The Eos ([…], time 7 day) was 1%, the Fbg ([…], time 7 day) was 331.6 mg/dL and the Hb ([…], time 7 day) was 13.7 g/dL. It also gave a Ht ([…], time 7 day) of 40.6%, a Lym ([…], time 7 day) of 84.8% and an MCH ([…], time 7 day) of 20.9 pg. The MCHC ([…], time 7 day) was 33.6%, the MCV ([…], time 7 day) was 62.3 fL and the Mono ([…], time 7 day) was 2.2%. The Neu ([…], time 7 day) was 11.2%, the PT ([…], time 7 day) was 16.3 s and the Plat ([…], time 7 day) was 120.3 x10_4/uL. For the same compound, the RBC ([…], time 7 day) was 653 x10_4/ul, the Ret ([…], time 7 day) was 6.3% and the WBC ([…], time 7 day) was 86.1 x10_2/uL. It also gave an APTT ([…], time 14 day) of 22.1 s, a Bas ([…], time 14 day) of 0% and an Eos ([…], time 14 day) of 1%. The Fbg ([…], time 14 day) was 335.6 mg/dL, the Hb ([…], time 14 day) was 14.1 g/dL and the Ht ([…], time 14 day) was 40.7%. For the same compound, the Lym ([…], time 14 day) was 87.4%, the MCH ([…], time 14 day) was 20.5 pg and the MCHC ([…], time 14 day) was 34.7%. The MCV ([…], time 14 day) was 58.9 fL, the Mono ([…], time 14 day) was 2.2% and the Neu ([…], time 14 day) was 8.2%. It also gave a PT ([…], time 14 day) of 16.1 s, a Plat ([…], time 14 day) of 116 x10_4/uL and an RBC ([…], time 14 day) of 690 x10_4/ul. The Ret ([…], time 14 day) was 4.9%, the WBC ([…], time 14 day) was 110.3 x10_2/uL and the APTT ([…], time 28 day) was 24.1 s. It also gave a Bas ([…], time 28 day) of 0%, an Eos ([…], time 28 day) of 1.2% and a Fbg ([…], time 28 day) of 339.2 mg/dL. It also gave a Hb ([…], time 28 day) of 15.6 g/dL, a Ht ([…], time 28 day) of 45.3% and a Lym ([…], time 28 day) of 85.4%. For the same compound, the MCH ([…], time 28 day) was 19 pg, the MCHC ([…], time 28 day) was 34.3% and the MCV ([…], time 28 day) was 55.3 fL. It also gave a Mono ([…], time 28 day) of 2.4%, a Neu ([…], time 28 day) of 9.2% and a PT ([…], time 28 day) of 16 s. For the same compound, the Plat ([…], time 28 day) was 99.2 x10_4/uL, the RBC ([…], time 28 day) was 819.8 x10_4/ul and the Ret ([…], time 28 day) was 2.5%. For the same compound, the WBC ([…], time 28 day) was 96.8 x10_2/uL, the KIDNEY_L ([…], time 7 day) was 1.1 g and the KIDNEY_R ([…], time 7 day) was 1.1 g. It also gave a KIDNEY_TOTAL ([…], time 7 day) of 2.2 g, a KIDNEY_L ([…], time 14 day) of 1.3 g and a KIDNEY_R ([…], time 14 day) of 1.3 g. For the same compound, the KIDNEY_TOTAL ([…], time 14 day) was 2.6 g, the KIDNEY_L ([…], time 28 day) was 1.4 g and the KIDNEY_R ([…], time 28 day) was 1.4 g. The KIDNEY_TOTAL ([…], time 28 day) was 2.9 g, the LIVER ([…], time 7 day) was 12.2 g and the LIVER ([…], time 14 day) was 13.9 g. For the same compound, the LIVER ([…], time 28 day) was 15.4 g, the A/G ([…], time 7 day) was 1.2 and the ALP ([…], time 7 day) was 1819.6 IU/L. For the same compound, the ALT ([…], time 7 day) was 42.4 IU/L, the AST ([…], time 7 day) was 70.4 IU/L and the BUN ([…], time 7 day) was 19 mg/dL. It also gave a CRE ([…], time 7 day) of 0.2 mg/dL, a Ca ([…], time 7 day) of 10.6 mg/dL and a Cl ([…], time 7 day) of 107.6 meq/L. The DBIL ([…], time 7 day) was 0 mg/dL, the GLC ([…], time 7 day) was 194.6 mg/dL and the IP ([…], time 7 day) was 7.3 mg/dL. For the same compound, the K ([…], time 7 day) was 4.1 meq/L, the LDH ([…], time 7 day) was 185.6 IU/L and the Na ([…], time 7 day) was 142 meq/L. It also gave a PL ([…], time 7 day) of 148.2 mg/dL, an RALB ([…], time 7 day) of 3 g/dL and a TBIL ([…], time 7 day) of 0.002 mg/dL. For the same compound, the TC ([…], time 7 day) was 76 mg/dL, the TG ([…], time 7 day) was 123.6 mg/dL and the TP ([…], time 7 day) was 5.5 g/dL. The gamma-GTP ([…], time 7 day) was 1.6 IU/L, the A/G ([…], time 14 day) was 1.1 and the ALP ([…], time 14 day) was 1368.6 IU/L. The ALT ([…], time 14 day) was 35 IU/L, the AST ([…], time 14 day) was 70.2 IU/L and the BUN ([…], time 14 day) was 19.4 mg/dL. For the same compound, the CRE ([…], time 14 day) was 0.2 mg/dL, the Ca ([…], time 14 day) was 10.4 mg/dL and the Cl ([…], time 14 day) was 107.6 meq/L. For the same compound, the DBIL ([…], time 14 day) was 0 mg/dL, the GLC ([…], time 14 day) was 206.6 mg/dL and the IP ([…], time 14 day) was 7.2 mg/dL. The K ([…], time 14 day) was 4 meq/L, the LDH ([…], time 14 day) was 157.8 IU/L and the Na ([…], time 14 day) was 141.8 meq/L. The PL ([…], time 14 day) was 146.8 mg/dL, the RALB ([…], time 14 day) was 2.9 g/dL and the TBIL ([…], time 14 day) was 0.01 mg/dL. It also gave a TC ([…], time 14 day) of 79.8 mg/dL, a TG ([…], time 14 day) of 105.2 mg/dL and a TP ([…], time 14 day) of 5.5 g/dL. For the same compound, the gamma-GTP ([…], time 14 day) was 1.6 IU/L, the A/G ([…], time 28 day) was 1.1 and the ALP ([…], time 28 day) was 1061.2 IU/L. The ALT ([…], time 28 day) was 36.8 IU/L, the AST ([…], time 28 day) was 59.2 IU/L and the BUN ([…], time 28 day) was 19.6 mg/dL. It also gave a CRE ([…], time 28 day) of 0.2 mg/dL, a Ca ([…], time 28 day) of 10.5 mg/dL and a Cl ([…], time 28 day) of 106.4 meq/L. It also gave a DBIL ([…], time 28 day) of 0 mg/dL, a GLC ([…], time 28 day) of 203.4 mg/dL and an IP ([…], time 28 day) of 6.9 mg/dL. The K ([…], time 28 day) was 4 meq/L, the LDH ([…], time 28 day) was 130.6 IU/L and the Na ([…], time 28 day) was 141.4 meq/L. The PL ([…], time 28 day) was 151.8 mg/dL, the RALB ([…], time 28 day) was 3.1 g/dL and the TBIL ([…], time 28 day) was 0.014 mg/dL. The TC ([…], time 28 day) was 78.2 mg/dL, the TG ([…], time 28 day) was 140 mg/dL and the TP ([…], time 28 day) was 5.8 g/dL. The gamma-GTP ([…], time 28 day) was 2.2 IU/L.
